Source: ChEMBL document CHEMBL1201862, “PubChem BioAssay data set” (2004)
Activity calls are given as the source filed them.

How the values were obtained:
[1] = target: G2/mitotic-specific cyclin-B1 (Homo sapiens, UniProt P14635); assay: Counterscreen assay for inhibitors of Wee1 degradation: dose response cell-based assay to identify inhibitors of cyclin B degradation. [Related pubchem assays: 1410, 1321 ]; assay type: functional
[2] = target: G-protein coupled receptor 55 (Homo sapiens, UniProt Q9Y2T6); assay: GPR55 antagonists blocking LPI-driven arrestin recruitment, primary screen, imaging, U2OS, beta-arrestin-GFP, LPI agonist (AID 2013); assay type: functional;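 note: antagonist potency measured as reduced agonist-driven arrestin aggregation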
[3] = target: Wee1-like protein kinase (Homo sapiens, UniProt P30291); assay: Dose Response Cell-based Assay for Inhibitors of Wee1 Degradation. [Related pubchem assays: 1410, 1321 ]; assay type: functional
Wee1-like protein kinase, sequence (P30291 whole entry): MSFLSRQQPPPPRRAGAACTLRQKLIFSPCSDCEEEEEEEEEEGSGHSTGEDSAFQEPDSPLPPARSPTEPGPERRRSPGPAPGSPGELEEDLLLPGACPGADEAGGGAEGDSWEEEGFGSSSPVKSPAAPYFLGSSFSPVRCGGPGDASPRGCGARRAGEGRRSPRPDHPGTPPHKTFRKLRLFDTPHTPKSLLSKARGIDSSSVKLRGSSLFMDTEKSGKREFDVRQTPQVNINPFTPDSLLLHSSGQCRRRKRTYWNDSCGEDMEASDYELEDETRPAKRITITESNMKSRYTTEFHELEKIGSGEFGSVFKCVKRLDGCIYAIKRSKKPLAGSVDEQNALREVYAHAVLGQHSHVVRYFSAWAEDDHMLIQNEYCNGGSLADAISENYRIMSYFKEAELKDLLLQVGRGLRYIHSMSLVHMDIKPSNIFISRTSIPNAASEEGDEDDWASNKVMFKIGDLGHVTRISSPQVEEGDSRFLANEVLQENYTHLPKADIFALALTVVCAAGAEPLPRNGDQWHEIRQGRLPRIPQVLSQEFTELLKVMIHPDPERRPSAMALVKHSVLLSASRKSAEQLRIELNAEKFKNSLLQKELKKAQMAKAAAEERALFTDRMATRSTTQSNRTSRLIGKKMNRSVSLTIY

[4] = test system: Streptococcus sp. 'group A'; assay: growth inhibition of control SK(-) GAS strain, dose response, counter-screen for streptokinase expression inhibitor project, luminescence, kanamycin, BacTiterGlo, confirmation (AID 1900); assay type: functional, organism-based
[5] = test system: Streptococcus; assay: Luminescence Microorganism-Based Dose Response Follow up to Identify Compounds Cytotoxic to Streptococcus. [Related pubchem assays: 1677 (Project Summary), 1915, 1914, 1902 (Retest at Dose), 1900 (Counter Screen), 1662 (Primary HTS)]; assay type: functional, organism-based
[6] = target: Lytic switch protein BZLF1 (Epstein-Barr virus (strain B95-8) (HHV-4) (Human herpesvirus 4), UniProt P03206); assay: EBV ZTA inhibitors, dose response, counter-screen for EBNA-1 inhibitor project, biochemical, fluorescence polarization, Epstein-Barr virus, 1536-well (AID 2377); set-up: species or system human gammaherpesvirus 4;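 note: fluorescence polarization of Cy5-labelled ZRE DNA probe bound by purified Zta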
Lytic switch protein BZLF1, sequence (P03206 whole entry): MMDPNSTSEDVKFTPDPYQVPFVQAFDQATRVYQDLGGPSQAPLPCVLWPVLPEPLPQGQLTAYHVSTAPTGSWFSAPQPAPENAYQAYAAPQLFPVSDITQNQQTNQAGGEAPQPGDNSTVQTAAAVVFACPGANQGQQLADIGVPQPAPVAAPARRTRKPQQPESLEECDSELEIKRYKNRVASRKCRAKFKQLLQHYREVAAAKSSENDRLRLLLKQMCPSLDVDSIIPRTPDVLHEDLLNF

[7] = target: T1, Streptokinase A (Streptococcus pyogenes serotype M1, UniProt P10520); assay: S. pyogenes streptokinase expression inhibitors, potency, dose response, plasminogen activation absorbance, OD405 (AID 1914); assay type: functional, Streptococcus pyogenes M1 GAS;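 note: secreted streptokinase activity via plasminogen activation per viability signal from cell pellet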
T1 sequence (P10520 whole entry): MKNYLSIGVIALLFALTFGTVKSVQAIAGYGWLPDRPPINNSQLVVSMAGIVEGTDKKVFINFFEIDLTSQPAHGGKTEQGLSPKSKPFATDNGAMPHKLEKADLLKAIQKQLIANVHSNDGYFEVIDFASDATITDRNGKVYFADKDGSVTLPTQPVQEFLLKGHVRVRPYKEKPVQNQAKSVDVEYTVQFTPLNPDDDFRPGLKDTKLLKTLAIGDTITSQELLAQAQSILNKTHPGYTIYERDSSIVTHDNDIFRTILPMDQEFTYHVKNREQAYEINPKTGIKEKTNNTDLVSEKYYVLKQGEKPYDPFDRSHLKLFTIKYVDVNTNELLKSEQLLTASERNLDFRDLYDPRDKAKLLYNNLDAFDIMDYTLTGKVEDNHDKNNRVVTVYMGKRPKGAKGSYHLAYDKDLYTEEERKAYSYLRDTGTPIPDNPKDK

[8] = target: Epstein-Barr nuclear antigen 1 (Epstein-Barr virus (strain B95-8) (HHV-4) (Human herpesvirus 4), UniProt P03211); assay: EBNA-1 inhibitors, dose response, biochemical, fluorescence polarization, 1536-well (AID 2381); set-up: species or system human gammaherpesvirus 4;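 note: fluorescence polarization of a Cy5 DNA probe bound by EBNA-1 protein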
[9] = test system: Streptococcus; assay: Group A Streptococcus viability loss, dose response, counter-screen for streptokinase expression inhibitor project, luminescence, BacTiterGlo (AID 1915); assay type: functional, organism-based;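 note: potency for reduction of bacterial viability or growth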
[10] = target: T2, Heat shock 70 kDa protein 1A (Homo sapiens, UniProt P0DMV8); assay: Hsp70 inhibitors, probe displacement, primary screen, biochemical, fluorescence polarization (AID 583)
T2 sequence (P0DMV8 whole entry): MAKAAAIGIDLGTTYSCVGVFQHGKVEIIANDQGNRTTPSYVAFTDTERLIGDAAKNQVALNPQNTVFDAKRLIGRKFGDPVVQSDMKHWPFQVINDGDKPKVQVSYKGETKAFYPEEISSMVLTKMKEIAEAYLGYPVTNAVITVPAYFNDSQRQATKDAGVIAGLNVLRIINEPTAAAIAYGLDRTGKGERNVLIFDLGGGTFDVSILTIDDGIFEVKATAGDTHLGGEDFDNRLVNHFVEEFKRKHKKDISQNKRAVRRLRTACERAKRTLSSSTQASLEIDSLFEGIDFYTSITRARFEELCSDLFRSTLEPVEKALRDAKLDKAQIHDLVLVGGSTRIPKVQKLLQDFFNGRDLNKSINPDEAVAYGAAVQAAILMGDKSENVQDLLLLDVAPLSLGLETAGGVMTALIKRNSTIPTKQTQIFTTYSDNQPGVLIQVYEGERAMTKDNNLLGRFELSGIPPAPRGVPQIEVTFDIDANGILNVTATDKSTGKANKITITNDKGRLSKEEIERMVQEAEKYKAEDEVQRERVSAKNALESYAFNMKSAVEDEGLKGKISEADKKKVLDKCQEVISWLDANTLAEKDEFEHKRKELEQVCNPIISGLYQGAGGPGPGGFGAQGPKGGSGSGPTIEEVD

[11] = target: T2, Heat shock 70 kDa protein 1A; assay: Hsp70 inhibitors, biochemical, TR-FRET (AID 786)
[12] = target: Peroxisome proliferator-activated receptor gamma/Nuclear receptor coactivator 2 (Homo sapiens, UniProt P37231); assay type: functional;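 note: agonist potency for raising coactivator recruitment to the receptor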
[13] = target: Peroxisome proliferator-activated receptor gamma/Nuclear receptor coactivator 1 (Homo sapiens, UniProt P37231); assay type: functional;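 note: agonist potency as compounds enhance coactivator SRC-1 recruitment to PPARgamma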
[14] = target: Peroxisome proliferator-activated receptor gamma/Nuclear receptor coactivator 3 (Homo sapiens, UniProt P37231); assay type: functional;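 note: agonist potency for raising coactivator recruitment to the receptor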
[15] = target: Estrogen receptor beta (Homo sapiens, UniProt Q92731); assay: ERβ–SRC-3 coactivator interaction inhibitors, confirmation, orthogonal assay, biochemical, ELISA, streptavidin-HRP readout (AID 1060)
[16] = target: T3, Estrogen receptor (Homo sapiens, UniProt P03372);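 note: potency for inhibiting coactivator peptide recruitment to the receptor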
T3 sequence (P03372 whole entry): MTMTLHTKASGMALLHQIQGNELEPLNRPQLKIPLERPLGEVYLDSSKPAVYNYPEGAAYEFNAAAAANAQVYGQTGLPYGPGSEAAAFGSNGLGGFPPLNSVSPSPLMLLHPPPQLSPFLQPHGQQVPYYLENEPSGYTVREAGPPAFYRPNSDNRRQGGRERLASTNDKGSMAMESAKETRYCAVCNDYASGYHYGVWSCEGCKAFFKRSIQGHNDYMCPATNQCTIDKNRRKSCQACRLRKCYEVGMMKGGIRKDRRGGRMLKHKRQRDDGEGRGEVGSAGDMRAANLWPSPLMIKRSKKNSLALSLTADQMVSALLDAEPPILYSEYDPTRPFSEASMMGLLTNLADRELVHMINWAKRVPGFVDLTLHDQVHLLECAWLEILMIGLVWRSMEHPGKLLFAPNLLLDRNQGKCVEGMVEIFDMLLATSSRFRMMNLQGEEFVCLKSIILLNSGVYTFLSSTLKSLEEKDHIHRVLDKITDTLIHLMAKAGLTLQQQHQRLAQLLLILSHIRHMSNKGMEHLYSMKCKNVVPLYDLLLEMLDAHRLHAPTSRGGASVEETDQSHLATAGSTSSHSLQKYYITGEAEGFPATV

[17] = target: T3, Estrogen receptor; assay: ERα–SRC-3 coactivator interaction inhibitors, confirmation, orthogonal assay, biochemical, ELISA, streptavidin-HRP readout (AID 1079)
[18] = target: Luciferin 4-monooxygenase (Photinus pyralis, UniProt P08659); assay: Counter Screen for Luciferase-based Assay Positives. [Related pubchem assays: 620, 618, 411 ]
Luciferin 4-monooxygenase, sequence (P08659 whole entry, the tested form may be a part): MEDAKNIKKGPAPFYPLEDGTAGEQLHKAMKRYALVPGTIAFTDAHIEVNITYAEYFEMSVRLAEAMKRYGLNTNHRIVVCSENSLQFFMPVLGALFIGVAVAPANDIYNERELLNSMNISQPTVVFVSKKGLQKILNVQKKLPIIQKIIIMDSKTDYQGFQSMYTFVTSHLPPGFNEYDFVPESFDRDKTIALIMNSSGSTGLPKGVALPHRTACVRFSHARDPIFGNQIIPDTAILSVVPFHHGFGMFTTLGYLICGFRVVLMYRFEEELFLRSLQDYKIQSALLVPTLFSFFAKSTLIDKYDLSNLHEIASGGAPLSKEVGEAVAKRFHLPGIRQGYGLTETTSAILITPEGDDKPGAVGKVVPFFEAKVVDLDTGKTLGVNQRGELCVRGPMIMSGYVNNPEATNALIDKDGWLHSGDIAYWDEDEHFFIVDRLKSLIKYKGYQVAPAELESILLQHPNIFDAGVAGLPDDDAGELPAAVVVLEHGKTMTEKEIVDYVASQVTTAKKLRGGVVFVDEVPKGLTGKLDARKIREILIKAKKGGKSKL

[19] = ZM109 Env clade C HIV-1 fusion inhibitors, dose response, HeLa effector, CEM target cells, luciferase, cherry-pick (AID 652058); assay type: functional, cell-based
[20] = cytotoxicity in HEK-293T cells, dose response, cytotoxicity control for TCR NF-kB inhibitor project, luminescence, T-cell screen hits (AID 489026); assay type: functional, cell-based;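 note: cells exposed to compound about 14 hours before the viability readout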
[21] = test system: HT-1080; assay: cytotoxicity in HT1080 fibrosarcoma cells, cell-based, fluorescence readout (AID 620); assay type: functional; conditions: Homo sapiens
[22] = inhibitors of clade B AD8 Env fusion, dose response, cell-based, cherry-pick (AID 652062); assay type: functional;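 note: luciferase signal from cell-cell fusion driven by HIV-1 clade B AD8 Env; potency is for inhibitors of fusion seen as a drop in luminescence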
[23] = inhibitors of HIV Env-driven cell fusion, dose response, cherry-pick (AID 652057); assay type: functional, cell-based
[24] = off-target signal loss in HeLa-CEM21 co-culture – HeLa F-luc CTL cells, cherry-picked, counter-screen for HIV-1 Env fusion inhibitor project, dose response (AID 652040); assay type: functional, cell-based;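 note: potency for signal decrease marking cytotoxic or nonspecific inhibition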
[25] = target: Cytochrome P450 3A4 (Homo sapiens, UniProt P08684); conditions: Potency;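 note: confirmatory qHTS run detecting inhibitors and substrates of CYP3A4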
Cytochrome P450 3A4, sequence (P08684 whole entry): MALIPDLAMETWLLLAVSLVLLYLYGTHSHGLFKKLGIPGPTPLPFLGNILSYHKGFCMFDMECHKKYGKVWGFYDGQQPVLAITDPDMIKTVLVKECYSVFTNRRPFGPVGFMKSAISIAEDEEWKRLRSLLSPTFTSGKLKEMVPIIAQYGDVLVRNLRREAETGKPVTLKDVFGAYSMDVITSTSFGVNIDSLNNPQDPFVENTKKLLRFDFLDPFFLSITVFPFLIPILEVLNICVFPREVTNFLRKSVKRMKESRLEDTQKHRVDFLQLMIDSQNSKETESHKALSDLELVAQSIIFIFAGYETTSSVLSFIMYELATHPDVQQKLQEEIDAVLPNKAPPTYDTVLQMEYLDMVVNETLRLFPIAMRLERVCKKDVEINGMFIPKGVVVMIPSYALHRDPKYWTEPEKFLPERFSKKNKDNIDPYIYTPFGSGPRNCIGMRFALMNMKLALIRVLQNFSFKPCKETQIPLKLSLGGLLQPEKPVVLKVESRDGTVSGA

[26] = target: Cytochrome P450 2C9 (Homo sapiens, UniProt P11712); conditions: Potency
[27] = target: T4, Probable nicotinate-nucleotide adenylyltransferase (Staphylococcus aureus (strain N315), UniProt P65502); assay type: functional, Staphylococcus aureus subsp. aureus N315; conditions: read-out: IC50_Mean;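 for IC50 Mean: confirmatory dose-response retesting of NadD inhibitor hits first found in an ultra-high-throughput screen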
T4 sequence (P65502 whole entry): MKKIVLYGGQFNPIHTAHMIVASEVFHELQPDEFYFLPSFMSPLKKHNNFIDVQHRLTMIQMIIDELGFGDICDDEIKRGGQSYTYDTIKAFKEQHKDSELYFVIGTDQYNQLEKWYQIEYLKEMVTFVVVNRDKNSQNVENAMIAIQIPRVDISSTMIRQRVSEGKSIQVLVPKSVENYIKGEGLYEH

[28] = target: T4, Probable nicotinate-nucleotide adenylyltransferase; assay type: functional, Staphylococcus aureus subsp. aureus N315
[29] = target: Transitional endoplasmic reticulum ATPase (Homo sapiens, UniProt P55072, C522A); assay: C522A mutant p97 ATPase inhibitors, dose response, counter-screen for p97 inhibitor project, biochemical, luminescence (AID 1544)
[30] = target: T5, Aminopeptidase N (Plasmodium falciparum FcB1/Columbia, UniProt O96935); assay: P. falciparum M1AAP inhibitors, biochemical, fluorogenic H-Leu-NHMec substrate, 1536-well (AID 1445); set-up: species or system Plasmodium falciparum 3D7, 3D7
T5 sequence (O96935 whole entry): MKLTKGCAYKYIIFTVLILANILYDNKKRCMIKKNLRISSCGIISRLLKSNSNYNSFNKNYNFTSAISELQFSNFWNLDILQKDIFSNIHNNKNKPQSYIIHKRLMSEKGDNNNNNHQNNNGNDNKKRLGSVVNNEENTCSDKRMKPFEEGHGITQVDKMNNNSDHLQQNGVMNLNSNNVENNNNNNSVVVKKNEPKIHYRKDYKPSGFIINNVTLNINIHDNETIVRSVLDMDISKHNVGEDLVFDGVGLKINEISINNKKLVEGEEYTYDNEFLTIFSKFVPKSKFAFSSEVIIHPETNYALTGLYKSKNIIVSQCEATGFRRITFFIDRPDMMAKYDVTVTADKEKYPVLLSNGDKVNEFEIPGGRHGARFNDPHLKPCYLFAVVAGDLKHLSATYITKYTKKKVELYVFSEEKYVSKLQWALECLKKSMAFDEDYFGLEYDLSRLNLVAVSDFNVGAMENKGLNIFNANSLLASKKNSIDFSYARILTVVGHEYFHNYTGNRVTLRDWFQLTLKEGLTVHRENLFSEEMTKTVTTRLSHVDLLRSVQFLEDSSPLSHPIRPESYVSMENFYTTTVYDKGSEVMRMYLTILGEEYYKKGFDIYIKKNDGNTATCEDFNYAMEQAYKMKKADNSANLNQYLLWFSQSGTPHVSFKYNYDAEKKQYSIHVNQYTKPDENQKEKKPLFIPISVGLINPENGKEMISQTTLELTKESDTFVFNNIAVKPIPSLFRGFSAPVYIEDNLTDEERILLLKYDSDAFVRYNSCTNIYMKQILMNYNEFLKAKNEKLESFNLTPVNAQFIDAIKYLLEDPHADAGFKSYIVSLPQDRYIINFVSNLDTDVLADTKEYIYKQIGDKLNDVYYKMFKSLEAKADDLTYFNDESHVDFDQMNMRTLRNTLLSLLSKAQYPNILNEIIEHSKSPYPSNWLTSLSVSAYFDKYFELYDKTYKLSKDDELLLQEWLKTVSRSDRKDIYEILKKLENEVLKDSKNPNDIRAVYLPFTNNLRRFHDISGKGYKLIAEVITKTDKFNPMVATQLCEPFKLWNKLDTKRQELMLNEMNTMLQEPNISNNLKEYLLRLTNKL

[31] = target: Transitional endoplasmic reticulum ATPase (Homo sapiens, UniProt P55072); assay: p97 ATPase inhibitors, dose response, biochemical (AID 1534)
Transitional endoplasmic reticulum ATPase (Homo sapiens, UniProt P55072), sequence (P55072 whole entry): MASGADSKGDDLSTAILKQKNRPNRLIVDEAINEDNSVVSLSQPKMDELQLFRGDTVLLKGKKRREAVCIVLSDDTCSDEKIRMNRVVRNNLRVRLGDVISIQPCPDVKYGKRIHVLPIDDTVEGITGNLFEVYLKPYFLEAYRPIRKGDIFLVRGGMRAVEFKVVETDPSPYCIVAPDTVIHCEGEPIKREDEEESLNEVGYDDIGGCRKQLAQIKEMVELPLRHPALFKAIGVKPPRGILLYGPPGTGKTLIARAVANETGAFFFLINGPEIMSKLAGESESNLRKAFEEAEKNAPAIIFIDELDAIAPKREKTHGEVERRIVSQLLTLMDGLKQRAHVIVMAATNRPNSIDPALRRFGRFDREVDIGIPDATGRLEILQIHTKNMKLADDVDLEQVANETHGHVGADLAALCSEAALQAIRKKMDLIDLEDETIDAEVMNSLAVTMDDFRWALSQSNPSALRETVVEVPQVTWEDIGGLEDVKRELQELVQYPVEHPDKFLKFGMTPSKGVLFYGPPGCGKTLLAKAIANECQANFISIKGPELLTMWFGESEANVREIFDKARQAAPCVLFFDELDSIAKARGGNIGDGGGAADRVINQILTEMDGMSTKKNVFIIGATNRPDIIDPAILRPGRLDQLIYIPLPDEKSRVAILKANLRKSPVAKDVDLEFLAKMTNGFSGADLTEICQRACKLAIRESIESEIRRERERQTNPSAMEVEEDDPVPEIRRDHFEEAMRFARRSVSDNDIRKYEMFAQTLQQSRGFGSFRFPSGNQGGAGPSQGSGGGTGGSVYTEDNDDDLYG

[32] = target: Induced myeloid leukemia cell differentiation protein Mcl-1 (Homo sapiens, UniProt Q07820); assay type: functional
Induced myeloid leukemia cell differentiation protein Mcl-1, sequence (Q07820 whole entry): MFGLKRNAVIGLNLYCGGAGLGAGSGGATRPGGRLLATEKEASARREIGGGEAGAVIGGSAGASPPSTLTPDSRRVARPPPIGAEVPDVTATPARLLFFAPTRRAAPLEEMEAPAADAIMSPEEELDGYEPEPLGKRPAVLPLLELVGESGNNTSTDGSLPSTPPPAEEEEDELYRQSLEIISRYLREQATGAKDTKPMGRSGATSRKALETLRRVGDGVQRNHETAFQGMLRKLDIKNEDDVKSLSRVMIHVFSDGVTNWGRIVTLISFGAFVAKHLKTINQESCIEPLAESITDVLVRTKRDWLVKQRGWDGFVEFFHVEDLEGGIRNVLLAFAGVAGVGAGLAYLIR

[33] = target: Aspartyl aminopeptidase (Plasmodium falciparum 3D7, UniProt Q8I2J3)
Aspartyl aminopeptidase, sequence (Q8I2J3 whole entry): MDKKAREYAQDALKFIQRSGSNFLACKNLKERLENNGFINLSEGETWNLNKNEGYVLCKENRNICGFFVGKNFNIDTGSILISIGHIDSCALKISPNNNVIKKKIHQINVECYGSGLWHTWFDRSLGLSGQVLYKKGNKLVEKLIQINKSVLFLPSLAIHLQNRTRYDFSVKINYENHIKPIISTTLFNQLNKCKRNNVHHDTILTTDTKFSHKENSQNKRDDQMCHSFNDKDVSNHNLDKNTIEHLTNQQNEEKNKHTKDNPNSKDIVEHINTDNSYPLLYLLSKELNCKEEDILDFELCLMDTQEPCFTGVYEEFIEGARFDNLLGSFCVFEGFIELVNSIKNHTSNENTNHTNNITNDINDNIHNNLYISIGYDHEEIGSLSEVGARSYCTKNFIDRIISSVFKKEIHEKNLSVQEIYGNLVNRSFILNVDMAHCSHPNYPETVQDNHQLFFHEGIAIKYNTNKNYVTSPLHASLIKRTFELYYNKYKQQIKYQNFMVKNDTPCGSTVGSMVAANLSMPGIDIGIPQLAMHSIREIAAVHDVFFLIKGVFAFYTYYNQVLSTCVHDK

[34] = target: Procathepsin L (Homo sapiens, UniProt P07711)

G2/mitotic-specific cyclin-B1, sequence (P14635 whole entry): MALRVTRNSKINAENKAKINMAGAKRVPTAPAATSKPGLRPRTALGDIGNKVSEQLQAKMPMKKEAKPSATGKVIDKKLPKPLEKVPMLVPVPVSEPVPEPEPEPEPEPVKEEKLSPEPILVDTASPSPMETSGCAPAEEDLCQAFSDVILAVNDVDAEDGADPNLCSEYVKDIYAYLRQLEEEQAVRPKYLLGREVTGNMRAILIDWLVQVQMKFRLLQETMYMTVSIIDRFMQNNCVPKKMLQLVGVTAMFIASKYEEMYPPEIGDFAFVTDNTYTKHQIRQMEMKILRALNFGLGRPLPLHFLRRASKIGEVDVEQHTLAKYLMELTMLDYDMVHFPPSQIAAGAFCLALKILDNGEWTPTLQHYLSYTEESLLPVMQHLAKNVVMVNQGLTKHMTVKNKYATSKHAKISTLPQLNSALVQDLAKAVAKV

SMILES: O=C(/C=C/c1cccnc1)/C=C/c1cccnc1
- EC50 [1]: > 49.7 µM (not active)
- IC50 [2]: 3.26 µM (active)
- EC50 [3]: > 1.84 µM (active)

SMILES: O=[N+]([O-])c1ccccc1NCCNc1ncc(C(F)(F)F)cc1Cl
- EC50 [4]: > 150 µM (not active)
- EC50 [5]: > 500 µM (not active)
- IC50 [6]: 23.5 µM (not active)
- EC50 [7]: 5.57 µM (active)
- IC50 [8]: 16.8 µM (not active)
- EC50 [9]: > 150 µM (not active)

SMILES: CCOC(=O)N1CCN(CC(=O)Nc2cc(OCC)ccc2OCC)CC1
- IC50 [10]: > 100 µM (not active)
- IC50 [11]: > 100 µM (not active)

SMILES: CCn1cc(CNCc2cn(C)nc2-c2ccc(C3CCCCC3)cc2)cn1
- EC50 [12]: > 79.4 µM (not active)
- EC50 [13]: > 79.4 µM (not active)
- EC50 [14]: > 79.4 µM (not active)

SMILES: O=C(CCCn1c(=S)[nH]c2ccccc2c1=O)N1CCN(c2cccc(Cl)c2)CC1
- IC50 [15]: > 50 µM (not active)
- IC50 [16]: 5.73 µM (active)
- IC50 [17]: 0.12 µM (not active)

SMILES: Cc1ccc(C(=O)Nc2cccc(C(=O)O)c2)cc1
- EC50 [18]: 96.3 µM (active)
- AC50 [19]: 7.9 µM (active)
- IC50 [20]: > 80 µM (inactive)
- EC50 [21]: > 50 µM (not active)
- AC50 [22]: 4.84 µM (active)
- AC50 [23]: 1.38 µM (active)
- AC50 [24]: 2.07 µM (active)

SMILES: N#C/C(=C\c1ccc(O)cc1)C(=O)O [alpha-CYANO-4-HYDROXYCINNAMIC ACID]
- AC50 [25]: 31.6 µM (inconclusive)

SMILES: Clc1ccc([C@@H](c2ccccc2Cl)C(Cl)Cl)cc1
- AC50 [26]: 15.8 µM (inconclusive)

SMILES: O=c1cc(-c2ccc(O)c(-c3c(O)cc(O)c4c(=O)cc(-c5ccc(O)cc5)oc34)c2)oc2cc(O)cc(O)c12 [AMENTOFLAVONE]
- EC50 [4]: 1.68 µM (active)
- EC50 [7]: > 150 µM (not active)
- IC50 [27]: 29.4 µM (active)
- IC50 [28]: 9.38 µM (active)
- IC50 [29]: > 50 µM (not active)
- IC50 [30]: 108 µM (active)
- IC50 [31]: 8.98 µM (active)
- IC50 [32]: 1.63 µM (active)
- EC50 [9]: > 150 µM (not active)

SMILES: O=C(Nc1ccc(Cl)cc1Cl)Nn1cnnc1
- IC50 [33]: 0.791 µM (active)
- IC50 [34]: > 59.6 µM (not active)
